Experimental data: publication PMC6992764 (Nature Communications, 2020)

Key:
[1] = test system: PI3K activation in CCR2-expressing Chinese hamster ovary cells; experiment: PH-Akt domain translocation assay; type: cell-based; settings: 25 µM DSF for 30 min
Description: CCR2-expressing Chinese hamster ovary cells were transfected with PH-Akt-tHcRed. […] Cells were visualized with confocal microscopy using SP5 (Leica).

[2] = test system: Lewis lung carcinoma (LLC); experiment: LLC subcutaneous tumor-growth model; type: in vivo, mice
Protocol: For evaluating subcutaneous tumor growth, LLC or B16 cells (5 × 10^5) in 50 μl PBS were inoculated subcutaneously into the right flanks of mice. Mice were euthanized when their tumor volumes reached 4000 mm^3. Tumor sizes were measured twice a week using calipers. Tumor volume was calculated using the following formula: Volume = (width)^2 × length/2. For the lung metastasis model, 1 × 10^6 LLC or B16 cells in 200 μl PBS were injected intravenously into mice. Mice were euthanized at day 10 after tumor injection for the LLC model and day 5–9 for the B16 model, and the lungs were isolated after perfusion with PBS via the left ventricle. Visible lung metastases were counted in the left lobe. The diameters of metastatic nodules in the lung lobe image were measured using ImageJ software. […]
Cells for flow cytometric analysis were prepared as follows: bone marrow cells were flushed from femurs, followed by incubation with ACK buffer to remove red blood cells. […] After blocking Fc receptors through incubation with an anti-mouse CD16/32 antibody (clone 2.4G2, dilution 1:100, Cat BE0307), cells were stained with fluorescence-labeled anti-mouse monoclonal antibodies. […] Flow cytometry data were obtained using a Gallios flow cytometer (Beckman Coulter) and analyzed with FlowJo software (version 10; FlowJo, LLC). […]

[3] = test system: THP-1 cells; experiment: Cell viability alongside chemotaxis assay; type: cell-based, human; settings: at the concentrations tested in chemotaxis
[4] = biological target: T1, FROUNT-CCR2 interaction (Homo sapiens, UniProt Q9BW27); experiment: HTRF FROUNT-CCR2 interaction assay; type: binding
T1 construct: GST-fused FROUNT (FNT-C)
T1 sequence (Q9BW27 500-656 limits assumed): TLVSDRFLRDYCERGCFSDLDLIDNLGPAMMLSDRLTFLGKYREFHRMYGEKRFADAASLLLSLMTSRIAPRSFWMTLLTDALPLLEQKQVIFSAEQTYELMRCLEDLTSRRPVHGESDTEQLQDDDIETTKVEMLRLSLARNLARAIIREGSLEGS

[5] = biological target: T2, C603S FROUNT (Homo sapiens, UniProt Q9BW27, C603S/L538E/P612S); experiment: NMR titration of C603S FROUNT mutant; type: binding; settings: 50 µM DSF, 50 µM mutant
T2 construct: 50 µM CRBD of FROUNT (a.a. 532–656) bearing the L538E/P612S mutations or its mutant (C603S); made in house
T2 sequence (Q9BW27 532-656 L538E/C603S/P612S): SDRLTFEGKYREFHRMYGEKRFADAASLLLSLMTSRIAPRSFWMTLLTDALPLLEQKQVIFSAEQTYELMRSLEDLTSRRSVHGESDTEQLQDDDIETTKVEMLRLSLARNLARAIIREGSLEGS
Protocol: All ^1H–^15N heteronuclear single quantum correlation (HSQC) NMR spectra were measured at 25 °C on a Bruker 600-MHz AVANCE III spectrometer with a cryogenic probe. […] The assignments of the backbone ^1H^N and ^15N NMR signals of CRBD were performed, based on the previous paper. […] Combined chemical shift differences Δδ was calculated by Δδ = [(ΔδHN)^2 + (ΔδN/6.5)^2]^1/2, where ΔδHN and ΔδN are the chemical shift differences for ^1H^N and ^15N, respectively.

[6] = biological target: T3, FROUNT-CCR5 interaction (Homo sapiens, UniProt Q9BW27); experiment: HTRF FROUNT-CCR5 interaction assay; type: binding
T3 construct: GST-fused FROUNT (FNT-C)
T3 sequence (Q9BW27 500-656 limits assumed): T1 sequence (Q9BW27 500-656 limits assumed)

**Q.** CCN(CC)C(=S)SSC(=S)N(CC)CC [DSF, disulfiram] was tested. Which “membrane localization of PH-Akt upon CCL2 stimulation” value [1] did it give?
**A.** significantly impaired

**Q.** What about the “number of tumor-associated monocytes/macrophages” value ([2]; day 20 after tumor inoculation) of the same compound?
**A.** reduced

**Q.** What about the subcutaneous tumor growth ([2]; oral DSF in diet (0.8 mg DSF/1 g CE-2) from 4 days after inoculation) of the same compound?
**A.** inhibited

**Q.** What about the “cytotoxicity (cell viability)” value [3] of the same compound?
**A.** without any cytotoxicity

**Q.** What about the “inhibition of FROUNT-CCR2 interaction” value ([4]; HTRF) of the same compound?
**A.** specifically inhibited

**Q.** What about the IC50 ([4]; HTRF titration assay) of the same compound?
**A.** 0.042 µM

**Q.** And the “binding to C603S FROUNT” value [5]?
**A.** No significant binding

**Q.** What about the “inhibition of FROUNT-CCR5 interaction” value [6] of the same compound?
**A.** specifically inhibited
